Source: US20240156790A1, “COMPOUNDS, COMPOSITIONS, AND METHODS FOR MODULATING FERROPTOSIS AND TREATING EXCITOTOXIC DISORDERS” (THE TRUSTEES OF COLUMBIA UNIVERSITY IN THE CITY OF NEW YORK, priority 2018, published 2024)
Entries after “also recorded” stand apart in the source; their conditions may differ.

Tests used:
[1] = Plasma Stability Assay (Examples 6 and 8); type: in vitro ADME, mouse; details: for half-life at 20 µM: mouse, plasma diluted 1:1 in phosphate buffer, pH 7.4, experiment I, read-out: t1/2 I; for half-life at 20 µM / t1/2 II: plasma half-life; for t1/2 II: experiment II
Protocol: (§1) Mouse plasma (GeneTex) was centrifuged at 3000 rpm for 10 min at 10° C. with the resulting supernatant withdrawn and diluted 1:1 in phosphate buffer pH 7.4. To a 96-well polypropylene plate was added 50% mouse plasma phosphate buffer (195 μL). A stock solution of analog in DMSO (0.8 μL. 5 mM) or fer-1 (positive control) was added to a separate well and the components were warmed to 37° C. for 5 min with gentle agitation. The reaction was initiated with the addition of analog to plasma, and the reaction kept at 37° C. for gentle agitation for the duration of the assay. At selected time points, aliquots (15 μL) were withdrawn from the plate and quenched upon addition to cold methanol (60 μL), containing an internal standard (5 μM) in a separate 96-well polypropylene plate. At the completion of the final time-point, the samples were centrifuged at 4,000 rpm for 5 min at 4° C. The supernatant (40 μL) was withdrawn and transferred to a sample vial with insert. The samples were analyzed by LC-MS. LC-MS analysis was performed on a platform comprising a Thermo Scientific Dionex Ultimate 3000 and a Bruker amaZon SL equipped with an electrospray ionization source controlled by Bruker Hystar 3.2. Chromatographic separation was performed by injecting 5 μL of the sample onto an Agilent Eclipse Plus C18 column (2.1×50 mm, 3.5 μm) maintained at 20° C. The flow rate was maintained at 400 μL/min. The initial flow conditions were 80% solvent A (water containing 0.1% acetic acid) and 20% solvent B (methanol containing 0.1% acetic acid). Solvent B was raised to 80% over 0.50 min by 1.50 min. Solvent B was raised to 100% by 5.00 min and held there for 3.25 min. […] All analogs were detected in positive mode as [M+H]*. The percent compound remaining at each time-point was calculated as the ratio of the integrated compound peak over the internal standard peak and standardized to the t=0 time-point. Values were plotted in GraphPad Prism 9 and fit with a one phase decay.
as §1, with “3000 rpm (1053 g) for 10” for “3000 rpm for 10”, “4,000 rpm (1872 g) for 5” for “4,000 rpm for 5”, “phase decay. […]” for “phase decay.”

[2] = test system: HT-1080 cells; experiment: Rescue activity of Fer-1 analogs: inhibition of erastin-, IKE- or RSL3-induced death (Alamar Blue viability); type: cell-based
[3] = Microsomal stability, mouse liver microsomes (Table 1); type: in vitro ADME, Mouse: CD1; details: CD1, mouse, liver microsomes, Mouse: CD1; read-out: Microsomal Stability t1/2
Protocol: Each compound (1 μM) is incubated with mouse plasma, for 4 hours at 37° C., with shaking at 100 rpm. The concentration of compound in the buffer and plasma chambers is determined using LC-MS/MS. Metabolism of each compound is predicted using Sites of Metabolism (Schrodinger Suite), which combines intrinsic reactivity analysis (Hammett-Taft) with induced fit docking against 2C9, 2D6 and 3A4. This approach identifies 90% of known metabolism sites and has a false positive rate of 17%. The in vitro metabolic stability of each compound in mouse liver microsomes is determined. Pooled mouse liver microsomes are prepared and stored at −80° C. until needed. […]

[4] = Plasma stability, mouse plasma (Table 1); type: in vitro ADME
[5] = Mouse; value marked ^1, Hofmans et al., 2016; cited from earlier work
[6] = GSH adduct formation (GSH trapping) assay; type: in vitro ADME
Description: We then tested PHB4082 in a GSH adduct formation assay and the Ames test.

Row | Compound | stability in mouse plasma, in words [1] | half-life at 20 µM [1] [h] | t1/2 II [1] [h] | other results
1 | Cc1noc(-c2cnc(NC3CCCCC3)c(NC3CCCCC3)c2)n1 [TH-2-31, N^2,N^3-dicyclohexyl-5-(3-methyl-1,2,4-oxadiazol-5-yl)pyridine-2,3-diamine] | not metabolized in mouse plasma | > 4 | >4 | –
2 | CCOC(=O)c1ccc(NC2CCCCC2)c(N)c1 [Fer-1, Ferrostatin-1, reference compound] | rapidly degraded in mouse plasma | – | – | EC50 ([2]; Homo sapiens, ^a 50% viability, HT-1080 cells treated with 10 μM erastin): 50 nM; half-life [3]: 2.4 min; Plasma Stability at six hours (% remaining) [4]: 0-2%; time to full degradation in mouse plasma [1]: less than 15 min; Microsomal Stability t1/2 [5]: 1.9 ± 0.6 min
3 | Cc1noc(-c2cnc(NC3CCCC3)c(NC3CCCC3)c2)n1 [TH-4-67, N^2,N^3-dicyclopentyl-5-(3-methyl-1,2,4-oxadiazol-5-yl)pyridine-2,3-diamine] | not metabolized in mouse plasma | > 4 | >4 | –
4 | Cc1noc(-c2ccc(NC3CCCCC3)c(NC3CCCCC3)c2)n1 [PHB4082, N1,N2-dicyclohexyl-4-(3-methyl-1,2,4-oxadiazol-5-yl)benzene-1,2-diamine] | – | – | – | increase in potency compared to fer-1 ([2]; suppressing erastin-induced ferroptosis): 7 fold; GSH adduct formation / trapping result [6]: positive in a GSH trapping assay; also recorded: positive in the GSH adduct formation assay
5 | CCC(CC)Nc1cc(-c2nc(C)no2)cnc1NC1CCCCC1 [TH-4-55-2, N^2-cyclohexyl-5-(3-methyl-1,2,4-oxadiazol-5-yl)-N^3-(pentan-3-yl)pyridine-2,3-diamine] | not metabolized in mouse plasma | > 4 | >4 | –
